We go through 9 compounds from patent publication US4510136A (priority 1983, dated 1985).

The structures appear in SMILES notation.

The test system of series [1] is Uromyces phaseoli. Briefly: Bean rust control on sprayed bean seedlings (Example 85). Type of series: in vivo. On the procedure:
This suspension was sprayed to the point of run-off on bean seedlings. The following day, the plants were inoculated with a spore suspension of the fungus Uromyces phaseoli, causal agent of bean rust, and incubated in a saturated humidity chamber at 20° for 24 hours and then in a greenhouse for 7 days. Disease ratings were then made. Treated plants from successful treatments had few or no rust pustules in contrast to untreated plants which were covered with rust pustules.

Series [2] concerns 5 Phytophthora species. The class given is cell-based. Particulars: 200.0 ppm in V-8 agar, 22° C., 6 days.
In series [3] the test system is Helminthosporium maydis. Briefly: Southern corn leaf blight control on sprayed corn seedlings (Example 83). The class given is in vivo. Particulars: Bipolaris maydis, 192 h, 100 ppm spray, day before inoculation. Put shortly: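 Corn seedlings were sprayed to run-off with 100 ppm suspensions (6% acetone, 250 ppm TREM 014) and spore-inoculated the following day. Disease and growth reduction were rated after 24 h saturated humidity at 20° plus 7 days in a growth room.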

The test system of series [4] is Cercospora arachidicola. As to the kind of experiment: Peanut early leafspot control on sprayed peanut seedlings (Example 84). Type of series: in vivo. Particulars: Mycosphaerella arachidis, 360 h, read-out: % Control Peanut Easly Leafspot; for pest or weed control at 100 ppm: 100 ppm spray, day before inoculation.
The test system of series [5] is apple seedlings. As to the kind of experiment: Phytotoxicity on apple seedlings (Example 82). The class given is in vivo. On the set-up: key: G = growth reduction; H = hormonal effects. On the procedure:
These suspensions were sprayed to the point of run-off on apple seedlings. The following day, the plants were inoculated with a spore suspension of the fungus Venturia inaequalis, causal agent of apple scab, and incubated in a saturated humidity chamber at 20° for 24 hours and then in a growth room for an additional 10-12 days. Treated plants from successful treatments had fewer apple scab lesions when compared to untreated plants which were covered with scab lesions. Phytotoxicity expressed as growth reduction was observed on some of the plants in association with disease control.

The subject of series [6] is Venturia inaequalis. Briefly: Apple scab control on sprayed apple seedlings (Example 82). Type of series: in vivo. To be noted: Venturia inaequalis; for pest or weed control at 100 ppm: 100 ppm spray, day before inoculation.
The test system of series [7] is Erysiphe cichoracearum. As to the kind of experiment: Cucumber powdery mildew control on sprayed cucumber seedlings (Example 80). The class given is in vivo. Particulars: Golovinomyces cichoracearum, 168 h, 100 ppm spray, day before inoculation.
Series [8] concerns Phytophthora infestans. As to the kind of experiment: whole plant or invertebrate. Type of series: in vivo. Particulars: Phytophthora infestans, in Solanum lycopersicum, 168 h, read-out: % Control of Tomato Late Blight, 100 ppm spray, day before inoculation.
Series [9] concerns Pyricularia oryzae. Briefly: whole plant or invertebrate. To be noted: Pyricularia oryzae, 168 h, read-out: % Control of Rice Blast, 100 ppm spray, day before inoculation. Type of series: in vivo.
Series [10] concerns cucumber seedlings. As to the kind of experiment: Phytotoxicity on cucumber seedlings (Example 80). The class given is in vivo. On the set-up: key: G = growth reduction; H = hormonal effects. Particulars: 100 ppm spray. Put shortly: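 Disease was rated 7 days after inoculation with powdery mildew spores, which followed one day after a run-off spray of 100 ppm compound in water with 6% acetone and 250 ppm TREM 014. Growth reduction or hormonal effects on the seedlings were recorded as phytotoxicity.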

The test system of series [11] is Rhizoctonia solani. As to the kind of experiment: Rice sheath blight control on sprayed rice seedlings (Example 87). The class given is in vivo. Particulars: Rhizoctonia solani, 168 h, 100 ppm spray, day before inoculation. Put shortly:
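Disease ratings followed 7 days' growth-room incubation of seedlings given a bran/R. solani mycelium inoculum. Inoculation took place one day after spraying to run-off. The spray was a 100 ppm compound suspension in water containing 6% acetone and 250 ppm TREM 014.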

Series [12] deals with Puccinia recondita var. tritici. Briefly: Wheat leaf rust control on sprayed wheat seedlings (Example 79). Type of series: in vivo. To be noted: Puccinia recondita, 168 h; 100 ppm spray, day before inoculation. Summed up: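 Disease was scored as leaf rust pustules 7 days after a 24 h, 20° saturated-humidity incubation of seedlings inoculated with P. recondita var. tritici spores. Inoculation followed by one day a run-off spray of 100 ppm compound in water containing 6% acetone and 250 ppm TREM 014.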

Series [13] concerns Monilinia fructicola. Briefly: Stone fruit brown rot control on dipped canned peach halves (Example 86). Particulars: 120 h, 100 ppm dip, percent growth inhibition of colonies after five days. Put shortly:
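Canned peach halves were dipped 3 min in a 100 ppm compound suspension (5% acetone, 700 ppm TREM 014 surfactant in water) and air-dried. Each was inoculated with two Monilinia fructicola mycelium pieces and incubated 5 days in sterile containers. Colony radii were measured, and percent control was expressed as growth inhibition versus untreated peaches.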

The test system of series [14] is Erysiphe graminis. As to the kind of experiment: Barley powdery mildew control on sprayed barley seedlings (Example 81). Type of series: in vivo. Particulars: Blumeria graminis, 168 h; 100 ppm spray, day before inoculation. On the procedure:
The compounds of the previous examples were again dissolved in acetone in an amount equal to 6% of the final volume and then suspended at a concentration of 100 ppm in purified water containing 250 ppm of the surfactant TREM 014 (polyhydric alcohol esters). These suspensions were sprayed to the point of run-off on barley seedlings. The following day, the plants were inoculated with a spore suspension of the fungus Erysiphe graminis, causal agent of barley powdery mildew, and incubated in growth room for 7 days. Disease ratings were then made. Treated plants from successful treatments had little or no powdery mildew in contrast to untreated plants which were covered with powdery mildew.

In series [15] the test system is Pythium aphanadermatum. Briefly: Pythium control on cotton, seed coating (Example 91). The class given is in vivo. Particulars: 168 h, 2 gm/kg seed. Summed up:
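Cotton seeds coated with formulated compound at 2 gm/kg seed, air dried, and planted in soil amended with Pythium aphanadermatum, sand and corn meal. Held 1 week at room temperature before disease rating.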

The subject of series [16] is Pythium aphanadermatum. Briefly: Pythium control on corn, seed coating (Example 92). Type of series: in vivo. Particulars: 504 h, 2 gm/kg seed. On the procedure:
Several compounds of the previous examples were incorporated into a proprietary formulation and used to coat corn seeds at a rate of 2 gm/kg seed. After being thoroughly coated, the seeds were allowed to air dry at room temperature. The seeds were then planted into soil amended with a mixture of the fungus Pythium aphanadermatum, sand, and corn meal at a rate sufficient to kill most untreated seeds. The seeds were held at 49° F. for 2 weeks and then at 70° F. for 1 additional week. After this time disease ratings were made.

`C[Si](C)(Cn1cncn1)c1ccc(-c2ccccc2)cc1` [(1,1'-Biphenyl-4-yl)dimethyl(1H--1,2,4-triazol-1-ylmethyl)si] [(1,1'-Biphenyl-4-yl)dimethyl(1H-1,2,4-triazol-1-ylmethyl)silane]: the “% Control Bean Rust” value in series [1] (80 ppm spray, day before inoculation) amounted to 100%. In addition, the “No. of 5 Phytophthora species controlled in vitro” value in series [2] was 0.
Consider `C[Si](Cn1cncn1)(c1ccccc1)c1ccc(Cl)cc1Cl` (stereo not drawn) [(2,4-Dichlorophenyl)methyl(phenyl)(1H-1,2,4-triazol-1-ylmethyl)silane], for which the pest or weed control at 100 ppm was 0% in [3]; 100% in series [4]; 100% in [6]; 100% in [7]; 0% in series [8]; 0% in series [9]. The pest or weed control at 100 ppm in series [11] came out at 0%; in series [12], 100%. The Phytotoxicity on apple result in [5] (100 ppm spray) was “G”. Besides, the Phytotoxicity on cucumber entry in series [10] is given as “G”.
As a reminder, the inhibition of growth is the share of the control response that was lost under treatment. Compound `C[Si](Cn1cncn1)(c1ccccc1)c1ccc(Cl)cc1` (stereo not drawn) [(4-Chlorophenyl)methyl(phenyl)(1H-1,2,4-triazol-1-ylmethyl)silane] registered an inhibition of growth at 100 µg/mL in [13] of 70%. The pest or weed control at 100 ppm was 90% in series [3]; 100% in series [4]; 100% in series [6]; 100% in series [7]; 0% in [8]; 100% in [9]. For the same compound, the figures for the pest or weed control at 100 ppm in series [11] and in series [12] were 90% and 100%, respectively. The “% Control Bean Rust” value in series [1] (applied at 16 ppm) came out at 98%. For the same compound, in [2], the “No. of 5 Phytophthora species controlled in vitro” value was 0. In addition, the Phytotoxicity on cucumber entry in [10] was “G”.
In the case of `C[Si](Cn1cncn1)(c1ccccc1)c1ccc(F)cc1` (stereo not drawn) [(4-Fluorophenyl)methyl(phenyl)(1H-1,2,4-triazol-1-ylmethyl)silane], in series [13], at 100 µg/mL the inhibition of growth was 90%. For the same compound, the pest or weed control at 100 ppm is 90% in [3]; 100% in series [4]; 100% in [6]; 100% in series [7]; 0% in [8]; 0% in [9]. For the same compound, the pest or weed control at 100 ppm in series [11] amounted to 80%; in [12], 90%. Further, the “% Control Bean Rust” value in series [1] (applied at 16 ppm) amounted to 100%. The “No. of 5 Phytophthora species controlled in vitro” value in series [2] stood at 0.
In turn, `CCCC[Si](C)(Cn1cncn1)c1ccc(Cl)cc1Cl` (stereo not drawn) [Butyl(2,4-dichlorophenyl)methyl(1H-1,2,4-triazol-1-ylmethyl)silane] yielded an inhibition of growth at 100 µg/mL in series [13] of 98%. Moreover, the pest or weed control at 100 ppm is 100% in series [3]; 100% in [4]; 100% in [6]; 100% in series [7]; 0% in series [8]; 0% in [9]. The pest or weed control at 100 ppm was found to be 50% in series [11] and 100% in series [12]. For the same compound, in series [5] (100 ppm spray), the Phytotoxicity on apple entry is “G”. Besides, the “No. of 5 Phytophthora species controlled in vitro” value in series [2] is recorded as 0. Moreover, in [10], the Phytotoxicity on cucumber entry is “G”.
Take `CCCC[Si](C)(Cn1cncn1)c1ccc(Cl)cc1` (stereo not drawn) [Butyl(4-chlorophenyl)methyl(1H-1,2,4-triazol-1-ylmethyl)silane]: the pest or weed control at 100 ppm in [14] worked out at 90%; in [3], 0%; in series [4], 0%; in series [6] it was 100%; in series [7], 100%; in [8] it was 0%. Moreover, the pest or weed control at 100 ppm in [9] was found to be 0%; in series [11], 0%; in series [12], 80%. In [13], this compound gave an inhibition of growth at 100 µg/mL of 98%. In addition, the Phytotoxicity on apple entry in [5] (100 ppm spray) is given as “G”. For the same compound, the Phytotoxicity on cucumber entry in series [10] is “G”.
`C[Si](C)(Cn1cncn1)c1ccccc1C(F)(F)F` [Dimethyl(1H-1,2,4-triazol-1-ylmethyl)(2-trifluoromethylphenyl)silane]: the pest or weed control at 100 ppm is 100% in series [14], 0% in [3] and 100% in [7]. The pest or weed control at 400 ppm in series [4] (applied at 400 ppm) stood at 25%; in series [6] (applied at 400 ppm), 65%. The Phytotoxicity on apple entry in [5] (applied at 400 ppm) is reported as “G”.
Regarding `Cc1ccc([Si](C)(C)Cn2cncn2)cc1` [Dimethyl(4-methylphenyl)(1H-1,2,4-triazol-1-ylmethyl)silane], the pest or weed control at 100 ppm came to 0% in series [3]; 0% in series [4]; 50% in series [6]; 100% in series [7]; 0% in series [8]; 0% in series [9]. The compound also returned a pest or weed control at 100 ppm in series [12] of 0%. Moreover, in [5] (100 ppm spray), the Phytotoxicity on apple result is given as “G”. The pest or weed control at 2 g/kg seed in series [15] and in [16] was 0% each time. Also, the Phytotoxicity on cucumber entry in series [10] is “G”.
Take `C[Si](Cn1cncn1)(c1ccc(F)cc1)c1ccc(F)cc1` [bis(4-Fluorophenyl)methyl(1H,-1,2,4-triazol-1-ylmethyl)silane]: 100 µg/mL produced 100% inhibition of growth in [13]. Besides, the pest or weed control at 100 ppm in series [3] was determined as 100%; in series [4] it was 100%; in [6], 100%; in [7], 100%; in series [8] it was 0%; in [9] it was 100%. The pest or weed control at 100 ppm in series [11] was determined as 80%; in series [12] it was 0%. In addition, the “% Control Bean Rust” value in [1] (applied at 16 ppm) was 98%. Further, the pest or weed control at 2 g/kg seed in series [15] and in [16] was 0% each time. Moreover, in series [2], the “No. of 5 Phytophthora species controlled in vitro” value came out at 0. The Phytotoxicity on cucumber entry in series [10] is on record as “G”.
